# Columns and labels:
# [1] = tested on: subjects with parasomnia; test: Retrospective study of subjects with parasomnia (follow-up questionnaire and phone interview); assay type: in vivo, human
# Protocol: A retrospective study was performed to evaluate the effects of L-tryoptophan on subjects with parasomnia and to look for sleep architectural differences in children before and after treatment.
# Confidential charts were selected of boys and girls between the ages of 3 and 18 years with a clinical diagnosis of Parasomnias, and including behaviours of sleep walking, sleep talking, nightmares or night-terrors.
# The 165 subjects that were included in the retrospective study of confidential charts were prescribed treatment with L-Tryptophan or Clonazepam, or no treatment. The exclusion criteria were children under the age 3 years or over the age 18 years and those undergoing treatment for Parasomnia at the time of the sleep study.
# The diagnosis of parasomnia was made by a sleep physician and based on the clinical history together with confirmation from the polysomnographic sleep study findings.
# An overnight polysomnographic sleep study and questionnaire data were collected during this study for each subject. Each of the subjects at the sleep clinic responded to a battery of questionnaires consisting of: Pediatric Daytime Sleepiness Scale (PDSS), THAT alertness scale, SNAP assessment for ADHD symptoms, Centre for Epidemiologic Studies in depression scale modified for children (CES-DC), and SCARED anxiety scale.
# A follow-up questionnaire was formulated to assess for their symptoms following treatment with Tryptophan to compare values before and after treatment. A follow-up phone interview was conducted to assess the frequency of Parasomnias during and after treatment. The follow-up questionnaire included: daytime sleepiness, level of attention and concentration, ability to wake up in the morning, number of hours of sleep at night and incidence of temper tantrums.
# Ninety nine (60%) of the 165 children were prescribed L-tryptophan to manage their parasomnia. The remaining were either prescribed Clonazepam (n=32) or were not prescribed anything. The latter reflected parental preference and/or clinical judgement.
# [2] = tested on: mild insomnia; settings: lower doses (<4 g), without altering sleep architecture; cited from earlier work
# [3] = tested on: subjects presenting with parasomnia; test: Case studies of subjects treated with L-tryptophan for parasomnia; assay type: in vivo, human
# Protocol: A detailed analysis of a number of subjects presenting with parasomnia who were treated with L-tryptophan was performed. A selection of case reports of subjects treated with L-tryptophan are summarized below. Remarkably, L-tryptophan is useful for the treatment of subjects presenting with a variety of abnormal behavioral or physiological events occurring in association with sleep, specific sleep stages, or sleep-wake transition.
# [4] = children treated with L-tryptophan
# [5] = out of 69 patients who took L-Tryptophan
# [6] = patients aged 3-18 years who took L-Tryptophan (n=69)
# [7] = patients who took L-Tryptophan (n=69)
# [8] = subjects administered L-tryptophan
# [9] = Case A, current dose of 1.75 mg
# [10] = Case B, 3 g one hour before bedtime
smiles,measurement,setting,value
"N[C@@H](Cc1c[nH]c2ccccc12)C(=O)O [L-tryptophan, (2S)-2-amino-3-(1H-indol-3-yl)propanoic acid]",frequency of parasomnic events,[1]; [4],reduced
same,number of arousals in sleep,[1]; [4],decreasing
same,"side effects observed, number of patients",[1]; [5],7
same,"side effects observed, percent of patients",[1]; [5],10%
same,"improvement in parasomnia symptoms (B or R), number of patients",[1]; [6],55
same,"improvement in parasomnia symptoms (B or R), percent of patients",[1]; [6],80%
same,"no change in parasomnia symptoms (U), number of patients",[1]; [7],10
same,"no change in parasomnia symptoms (U), percent of patients",[1]; [7],14%
same,"worsening of parasomnia symptoms (W), number of patients",[1]; [7],4
same,"worsening of parasomnia symptoms (W), percent of patients",[1]; [7],6%
same,alertness during the day,[1]; [8],increased
same,attention during the day,[1]; [8],better
same,number of temper tantrums,[1]; [8],reduced
same,decrease in sleep latency,[2],about half
same,daytime fatigue,[3]; [9],less problematic
same,nightly sleep talking,[3]; [9],ceased
same,patient's sleep,[3]; [9],improved
same,time to fall asleep after retiring to bed,[3]; [9],15 to 20 min
same,daytime somnolence or fatigue,[3]; [10],no observation of daytime somnolence or fatigue
same,night terrors,[3]; [10],no night terrors
same,nightly bedwetting / enuretic episodes,[3]; [10],still continues to experience nightly enuretic episodes
same,tolerability,"[3]; Case B, six capsules (3 g) one hour before bedtime",able to tolerate
same,daytime endurance,"[3]; Case C, dosage of 2 mg",improved significantly
same,sleepwalking,"[3]; Case C, dosage of 2 mg",No observed parasomnic behaviours of sleepwalking
same,subject's sleep,"[3]; Case C, dosage of 2 mg",marked improvement
same,bruxism,"[3]; Case D, 2 g daily",declined significantly
same,sleepwalking,"[3]; Case D, 2 g daily",no episodes of sleep walking
same,frequency of bedwetting,"[3]; Case E, 4.5 g daily",declined substantially
same,sleepwalking and sleep talking,"[3]; Case E, 4.5 g daily",no longer walked or talked in their sleep
same,sleep overall,"[3]; Case F, dose of 2.25 mg daily",improved noticeably
same,tolerability,"[3]; Case F, dose of 2.25 mg daily",tolerated L-tryptophan well

# Reference: patent US9895353B2, “Use of L-tryptophan for the treatment of parasomnias” (Zzeemag Inc., priority 2013, dated 2018)
